Assay results: patent publication US20230192700A1, “PYRAZOLOPYRAZINES ACTING ON CANCERS VIA INHIBITION OF CDK12” (Bayer Aktiengesellschaft, priority 2020, published 2023)
Like-named read-outs stand apart in the source and are kept apart here.

Experiments:
CYCLIN K = target: T1, CYCLIN K (Homo sapiens, UniProt O75909); assay: CYCLIN K nuclear protein level: immunofluorescence/high content analysis in CAL-120 cells; format: cell-based; conditions: 24 h, nuclear CCNK staining intensity, median, read-out: CYCLIN K degradation IF, DC50- [mol/l] (median)
T1 construct: endogenous in cells; host or cells: CAL-120 human breast cancer cells (DSMZ ACC 459)
Protocol: 7. CYCLIN K Nuclear Protein Level: Immunofluorescence/High Content Analysis
In the context of the present invention, the term “DC50 Cyclin K” refers to the DC50 values obtained according to the assay described in this section (7) herein below, i.e. the DC50 values for the degradation of Cyclin K.
CAL-120 human breast cancer cells (DSMZ ACC 459) are seeded in 1536-well microtiter plates (800 cells per well) containing 50 nanoL of compounds in Dose-Response. Control wells received DMSO or Reference Example 1. Plates are then incubated for 24 h at 37° C. in an humidified incubator and fixed with 4% PFA for 10 min. Then immunofluorescence (IF) against CYCLIN K (ThermoFisher Scientific CCNK Antibody # PA5-85020, rabbit, 1:200 dilution) is performed using standard IF protocols. Cells are then stained with Hoechst 33342 (Life Technologies, H-1399, 0.1 microg/mL) and imaged on an automated confocal microscopy system (e.g. Perkin Elmer Opera Phenix). Nuclear and cytoplasmic intensity as well as the nuclear/cytoplasmic intensity ratio is determined by automated image analysis using custom generated scripts (MetaXpress). Data is then transferred to Genedata Screener software, normalized to DMSO and control and DC50 values (degrading concentration to achieve 50% reduction of nuclear CCNK staining intensity relative to controls) are reported.

[1] = tested on: CAL-120 human breast adenocarcinoma cells; assay: Proliferation assay CAL-120 (crystal violet); format: cell-based; conditions: CAL-120 cells, 4 days, median, read-out: Prolif-CAL-120— IC50 - [mol/l] (median)
Protocol: 4. Proliferation assay: MDA-MB-231, CAL-120
Human tumour cells were originally obtained from the American Type Culture Collection (ATCC), or from the Deutsche Sammlung von Mikroorganismen and Zellkulturen (DSMZ, German Collection of Microorganisms and Cell Cultures). Cultivated tumour cells (CAL-120, human breast adenocarcinoma cells, DSMZ ACC-459; MDA-M B-231, human breast cancer cells, ATCC HTB-26) were plated at a density of 4,000 cells/well in a 96-well multititer plate in 200 microL of their respective growth medium supplemented 10% fetal calf serum. After 24 hours, the cells of one plate (zero-point plate) were stained with crystal violet (see below), while the medium of the other plates was supplemented with the test substances in various concentrations (0 micromol/L, as well as in the range of 0.01-10 micromol/L; the final concentration of the solvent dimethyl sulfoxide was adjusted to 0.1%) using a Tecan HP D300 Digital Dispenser. The cells were incubated for 4 days in the presence of test substances. Cell proliferation was determined by staining the cells with crystal violet: the cells were fixed by adding 20 microL/measuring point of an 11% glutaric aldehyde solution for 15 minutes at room temperature. After three washing cycles of the fixed cells with water, the plates were dried at room temperature. The cells were stained by adding 100 microL/measuring point of a 0.1% crystal violet solution (pH 3.0). After three washing cycles of the stained cells with water, the plates were dried at room temperature. The dye was dissolved by adding 100 microL/measuring point of a 10% acetic acid solution. The extinction was determined by photometry at a wavelength of 595 nm. The change of cell number, in percent, was calculated by normalization of the measured values to the extinction values of the zero-point plate(=0%) and the extinction of the untreated (0 μM) cells(=100%). The IC50 values (inhibitory concentration at 50% of maximal effect) were determined by means of a 4 parameter fit.

T1 sequence (O75909 whole entry): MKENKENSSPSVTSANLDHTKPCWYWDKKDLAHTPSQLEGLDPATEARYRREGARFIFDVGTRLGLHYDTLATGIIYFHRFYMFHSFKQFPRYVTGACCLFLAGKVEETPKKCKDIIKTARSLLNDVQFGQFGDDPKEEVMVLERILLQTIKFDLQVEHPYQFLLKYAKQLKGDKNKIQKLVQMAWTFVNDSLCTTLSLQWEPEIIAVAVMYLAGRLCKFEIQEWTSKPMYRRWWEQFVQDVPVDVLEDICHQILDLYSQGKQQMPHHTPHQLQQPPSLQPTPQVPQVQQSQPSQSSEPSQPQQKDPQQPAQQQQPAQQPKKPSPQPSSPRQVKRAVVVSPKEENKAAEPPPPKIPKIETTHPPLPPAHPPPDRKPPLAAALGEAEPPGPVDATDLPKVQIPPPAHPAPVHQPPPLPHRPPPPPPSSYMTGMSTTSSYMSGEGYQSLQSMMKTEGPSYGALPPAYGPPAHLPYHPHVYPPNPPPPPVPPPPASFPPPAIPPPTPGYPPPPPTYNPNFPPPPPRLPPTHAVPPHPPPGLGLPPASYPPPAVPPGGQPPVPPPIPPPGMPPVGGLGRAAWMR
T1 sequence (Q9NYV4 whole entry partner): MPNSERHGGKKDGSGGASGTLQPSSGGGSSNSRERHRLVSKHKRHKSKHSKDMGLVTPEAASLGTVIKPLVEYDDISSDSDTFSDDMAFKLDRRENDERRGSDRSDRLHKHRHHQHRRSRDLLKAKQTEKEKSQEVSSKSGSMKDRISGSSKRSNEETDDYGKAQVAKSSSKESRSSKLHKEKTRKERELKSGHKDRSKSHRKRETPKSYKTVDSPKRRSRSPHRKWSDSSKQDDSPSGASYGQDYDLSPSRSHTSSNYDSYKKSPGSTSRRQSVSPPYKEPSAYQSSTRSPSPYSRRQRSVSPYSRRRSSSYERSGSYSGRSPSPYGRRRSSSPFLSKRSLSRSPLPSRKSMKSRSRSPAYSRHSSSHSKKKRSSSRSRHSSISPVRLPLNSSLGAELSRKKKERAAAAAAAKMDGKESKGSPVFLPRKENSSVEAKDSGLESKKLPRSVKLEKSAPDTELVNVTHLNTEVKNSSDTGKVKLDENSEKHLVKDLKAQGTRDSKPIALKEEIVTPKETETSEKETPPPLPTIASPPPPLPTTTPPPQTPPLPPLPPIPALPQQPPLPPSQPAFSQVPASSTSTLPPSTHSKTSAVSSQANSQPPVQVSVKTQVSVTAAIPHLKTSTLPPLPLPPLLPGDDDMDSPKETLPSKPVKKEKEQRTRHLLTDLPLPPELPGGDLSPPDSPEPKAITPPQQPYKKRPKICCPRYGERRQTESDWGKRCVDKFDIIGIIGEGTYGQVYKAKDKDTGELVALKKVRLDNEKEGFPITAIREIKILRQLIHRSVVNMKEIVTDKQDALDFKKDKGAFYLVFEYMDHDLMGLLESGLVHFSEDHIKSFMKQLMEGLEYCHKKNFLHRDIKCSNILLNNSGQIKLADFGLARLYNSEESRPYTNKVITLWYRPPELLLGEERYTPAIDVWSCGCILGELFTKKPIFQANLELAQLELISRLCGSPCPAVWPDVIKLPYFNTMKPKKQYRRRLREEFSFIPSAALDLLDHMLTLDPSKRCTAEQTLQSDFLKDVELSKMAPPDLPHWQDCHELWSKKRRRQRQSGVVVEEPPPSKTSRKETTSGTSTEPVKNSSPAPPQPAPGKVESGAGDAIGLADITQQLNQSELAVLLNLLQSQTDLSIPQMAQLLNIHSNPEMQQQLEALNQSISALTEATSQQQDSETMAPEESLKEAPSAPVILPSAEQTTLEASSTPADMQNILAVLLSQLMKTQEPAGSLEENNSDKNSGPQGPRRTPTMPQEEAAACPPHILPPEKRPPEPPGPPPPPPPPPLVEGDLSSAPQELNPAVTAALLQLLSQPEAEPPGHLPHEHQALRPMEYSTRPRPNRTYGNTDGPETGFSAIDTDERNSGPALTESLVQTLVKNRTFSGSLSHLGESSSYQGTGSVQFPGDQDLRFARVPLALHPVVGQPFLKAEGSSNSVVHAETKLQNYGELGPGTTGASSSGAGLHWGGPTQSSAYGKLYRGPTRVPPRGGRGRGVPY

DC50 (CYCLIN K) [µM] | IC50 ([1]; Homo sapiens, CAL-120, 96 h) [µM] | IC50 [1] [µM] | Structure (SMILES)
0.0156 | 0.0797 | – | COC(C)(C)CCn1nc(NCc2nc3ccccc3[nH]2)c2ncc(C3CC3)nc21 [Example 67, N-[(1H-benzimidazol-2-yl)methyl]-6-cyclopropyl-1-(3-methoxy-3-methylbutyl)-1H-pyrazolo[3,4-b]pyrazin-3-amine]
0.0234 | 0.0606 | – | OC1(Cn2nc(NCc3nc4ccccc4[nH]3)c3ncc(C4CC4)nc32)CCC1 [Example 72, 1-[(3-{[(1H-benzimidazol-2-yl)methyl]amino}-6-cyclopropyl-1H-pyrazolo[3,4-b]pyrazin-1-yl)methyl]cyclobutan-1-ol]
0.00122 | 0.01 | – | COc1cccc2[nH]c(CNc3nn(C4CCOCC4)c4nc(C5CC5)cnc34)nc12 [Example 24, 6-cyclopropyl-N-[(4-methoxy-1H-benzimidazol-2-yl)methyl]-1-(oxan-4-yl)-1H-pyrazolo[3,4-b]pyrazin-3-amine]
0.000339 | 0.00361 | – | CN1CCC(n2nc(NCc3nc4cc(Cl)c(Cl)cc4[nH]3)c3ncc(C4CC4)nc32)CC1 [Example 19, 6-cyclopropyl-N-[(5,6-dichloro-1H-benzimidazol-2-yl)methyl]-1-(1-methylpiperidin-4-yl)-1H-pyrazolo[3,4-b]pyrazin-3-amine]
0.00262 | 0.0105 | – | CN1CCC(n2nc(NCc3nc4c(C(F)(F)F)cccc4[nH]3)c3ncc(C4CC4)nc32)CC1 [Example 7, 6-cyclopropyl-1-(1-methylpiperidin-4-yl)-N-{[4-(trifluoromethyl)-1H-benzimidazol-2-yl]methyl}-1H-pyrazolo[3,4-b]pyrazin-3-amine]
0.0374 | 0.147 | – | COCCn1nc(NCc2nc3ccccc3[nH]2)c2ncc(C3CC3)nc21 [Example 65, N-[(1H-benzimidazol-2-yl)methyl]-6-cyclopropyl-1-(2-methoxyethyl)-1H-pyrazolo[3,4-b]pyrazin-3-amine]
0.000877 | 0.00212 | – | Fc1ccc2[nH]c(CNc3nn(C4CCOCC4)c4nc(C5CC5)cnc34)nc2c1F [Example 32, 6-cyclopropyl-N-[(4,5-difluoro-1H-benzimidazol-2-yl)methyl]-1-(oxan-4-yl)-1H-pyrazolo[3,4-b]pyrazin-3-amine]
0.00641 | 0.0197 | – | Fc1ccc2[nH]c(CNc3nn(C4CCOCC4)c4nc(C5CC5)cnc34)nc2c1 [Example 53, 6-cyclopropyl-N-[(5-fluoro-1H-benzimidazol-2-yl)methyl]-1-(oxan-4-yl)-1H-pyrazolo[3,4-b]pyrazin-3-amine]
0.00487 | 0.0201 | – | OC[C@H]1C[C@H](n2nc(NCc3nc4ccccc4[nH]3)c3ncc(C4CC4)nc32)C1 [Example 46, [trans-3-(3-{[(1H-benzimidazol-2-yl)methyl]amino}-6-cyclopropyl-1H-pyrazolo[3,4-b]pyrazin-1-yl)cyclobutyl]methanol]
0.124 | 0.268 | – | c1ccc2[nH]c(CNc3nn(CC4CCC4)c4nc(C5CC5)cnc34)nc2c1 [Example 75, N-[(1H-benzimidazol-2-yl)methyl]-1-(cyclobutylmethyl)-6-cyclopropyl-1H-pyrazolo[3,4-b]pyrazin-3-amine]
0.0172 | 0.0845 | – | CC1COCCC1n1nc(NCc2nc3ccccc3[nH]2)c2ncc(C3CC3)nc21 (racemic) [Example 42, (±)-cis/trans-N-[(1H-benzimidazol-2-yl)methyl]-6-cyclopropyl-1-(3-methyloxan-4-yl)-1H-pyrazolo[3,4-b]pyrazin-3-amine]
0.000914 | 0.0163 | – | CN1CCC(n2nc(NCc3nc4cc(F)ccc4[nH]3)c3ncc(C4CC4)nc32)CC1 [Example 4, 6-cyclopropyl-N-[(5-fluoro-1H-benzimidazol-2-yl)methyl]-1-(1-methylpiperidin-4-yl)-1H-pyrazolo[3,4-b]pyrazin-3-amine]
0.00172 | – | 0.00414 | CN1CCCC(n2nc(NCc3nc4ccccc4[nH]3)c3ncc(C4CC4)nc32)CC1 (single isomer, unassigned) [Example 37, (+) or (−)-N-[(1H-benzimidazol-2-yl)methyl]-6-cyclopropyl-1-[(4R*)-1-methylazepan-4-yl]-1H-pyrazolo[3,4-b]pyrazin-3-amine]
0.00535 | 0.0346 | – | O[C@H]1C[C@@H](n2nc(NCc3nc4ccccc4[nH]3)c3ncc(C4CC4)nc32)C1 [Example 40, cis-3-(3-{[(1H-benzimidazol-2-yl)methyl]amino}-6-cyclopropyl-1H-pyrazolo[3,4-b]pyrazin-1-yl)cyclobutan-1-ol]
0.00115 | 0.0033 | – | CN1CCC(n2nc(NCc3nc4c(F)cccc4[nH]3)c3ncc(C4CC4)nc32)CC1 [Example 3, 6-cyclopropyl-N-[(4-fluoro-1H-benzimidazol-2-yl)methyl]-1-(1-methylpiperidin-4-yl)-1H-pyrazolo[3,4-b]pyrazin-3-amine]
0.00629 | 0.0275 | – | OC[C@H]1C[C@@H](n2nc(NCc3nc4ccccc4[nH]3)c3ncc(C4CC4)nc32)C1 [Example 47, [cis-3-(3-{[(1H-benzimidazol-2-yl)methyl]amino}-6-cyclopropyl-1H-pyrazolo[3,4-b]pyrazin-1-yl)cyclobutyl]methanol]
0.0156 | – | 0.156 | COCCC(C)n1nc(NCc2nc3ccccc3[nH]2)c2ncc(C3CC3)nc21 (single isomer, unassigned; (-)) [Example 58, (−)-N-[(1H-benzimidazol-2-yl)methyl]-6-cyclopropyl-1-[4-methoxybutan-2-yl]-1H-pyrazolo[3,4-b]pyrazin-3-amine]
0.0023 | 0.0204 | – | CC1CC(n2nc(NCc3nc4ccccc4[nH]3)c3ncc(C4CC4)nc32)CCN1C (racemic) [Example 41, (±)-cis/trans-N-[(1H-benzimidazol-2-yl)methyl]-6-cyclopropyl-1-(1,2-dimethylpiperidin-4-yl)-1H-pyrazolo[3,4-b]pyrazin-3-amine]
0.00883 | 0.0524 | – | O[C@H]1C[C@@H](Cn2nc(NCc3nc4ccccc4[nH]3)c3ncc(C4CC4)nc32)C1 [Example 71, cis-3-[(3-{[(1H-benzimidazol-2-yl)methyl]amino}-6-cyclopropyl-1H-pyrazolo[3,4-b]pyrazin-1-yl)methyl]cyclobutan-1-ol]
0.0532 | 0.11 | – | OC1(Cn2nc(NCc3nc4ccccc4[nH]3)c3ncc(C4CC4)nc32)CCCC1 [Example 73, 1-[(3-{[(1H-benzimidazol-2-yl)methyl]amino}-6-cyclopropyl-1H-pyrazolo[3,4-b]pyrazin-1-yl)methyl]cyclopentan-1-ol]
0.0387 | 0.0888 | – | c1ccc2[nH]c(CNc3nn(C4CCCC4)c4nc(C5CC5)cnc34)nc2c1 [Example 39, N-[(1H-benzimidazol-2-yl)methyl]-1-cyclopentyl-6-cyclopropyl-1H-pyrazolo[3,4-b]pyrazin-3-amine]
0.0386 | – | 0.44 | COCCC(C)n1nc(NCc2nc3ccccc3[nH]2)c2ncc(C3CC3)nc21 (single isomer, unassigned; (+)) [Example 59, (+)-N-[(1H-benzimidazol-2-yl)methyl]-6-cyclopropyl-1-[4-methoxybutan-2-yl]-1H-pyrazolo[3,4-b]pyrazin-3-amine]
0.0136 | 0.0467 | – | OCC1(Cn2nc(NCc3nc4ccccc4[nH]3)c3ncc(C4CC4)nc32)CCC1 [Example 74, {1-[(3-{[(1H-benzimidazol-2-yl)methyl]amino}-6-cyclopropyl-1H-pyrazolo[3,4-b]pyrazin-1-yl)methyl]cyclobutyl}methanol]
